Assay results: paper PMC12371487, “Phenylalkyl Acetophenones and Anacardic Acids from Knema oblongifolia with Synthetic Analogues as Anti-infectives and Antibacterial Agents” (ACS Bio & Med Chem Au, 2025)
≈ marks a conversion by molar mass, not a printed value.

Legend:
[1] = tested on: Staphylococcus aureus (Sa) Newman strain; assay: MIC determination in Mueller-Hinton broth (CLSI) on Sa; format: cell-based; conditions: Mueller-Hinton broth, CLSI; for MIC: Staphylococcus aureus, NEWMAN, read-out: MIC on Sa
Protocol: MICs were determined in Mueller–Hinton (MH) broth according to CLSI guidelines and were repeated at least on three different occasions.
The Newman strain ofS. aureus and the UCBPP-PA14 strain ofP. aeruginosa were used in this study.

[2] = tested on: Mycobacterium marinum (Mm) in infection of Dictyostelium discoideum; assay: Dd-Mm infection assay: intracellular Mm growth (luminescence); format: cell-based; conditions: for IC50: Mm inside Dd, luminescence AUC over 72 h at 25 °C, 6-concentration curve, top 100 μM, 1:3 steps, IC50 interpolated
Protocol: (§1) Plant extracts, fractions, or isolated compounds were stored at −20 °C and wrapped in aluminum foil if necessary. All manipulations with extracts, fractions, or compounds were performed under a sterile hood. Extracts, fractions, and compounds were resuspended throughout in DMSO to best solubilize extracts with diverse constituents. Extracts, fractions, or compounds were added to the assay plate in a 1:100 dilution. Assay solutions of extracts, fractions, and compounds were prepared in 96-well plates, stored at −20 °C, and thawed before the experiment at room temperature or warmer with or without shaking/vortexing to obtain a clear assay solution. Extracts were tested at 25 μg/mL and purified compounds in a dose–response curve of 6 concentrations with 100 μM being the top concentration and a 1:3 dilution step between each testing concentration. Since fractions were not weighed individually, the injection mass was used to calculate an average mass per fraction and thus a nominal mass concentration. Fractions were tested at a nominal concentration of 10 μg/mL.
(§2) As described in Nitschke et al. and Mottet et al., Dd Ax2(ka) expressing mCherry from the act5 chromosomal locus was infected with Mm M strain expressing the lux operon (luxCDABE) , by spinoculation.
(§3) Briefly, the day before the experiment, Mm was cultivated in 7H9 broth (Becton Dickinson, Difco Middlebrook 7H9) supplemented with 10% OADC (Becton Dickinson) and 0.05% tyloxapol (Sigma-Aldrich) and 50 μg/mL kanamycin at 32 °C overnight with continuous shaking. Additionally, the day before the experiment, 10^7 amoebae were plated in HL5-C in a 10 cm Petri dish (Falcon). On the day of the experiment, a volume of the Mm culture corresponding to a multiplicity of infection of 25 with respect to the number of amoebae in the Petri dish was added to the semiconfluent amoebae monolayer. Subsequently, the Petri dishes were centrifuged twice at 500g, as described in Mottet et al. To remove extracellular bacteria, dishes were rinsed with fresh HL5-C, and the infected cell population was resuspended in HL5-C with 5 U/mL penicillin and 5 μg/mL streptomycin (Gibco) to inhibit the extracellular growth of bacteria during the course of the experiment.
(§4) For testing fractions and purified compounds, 20 μL of infected cell suspension was plated into each well of a 384-well plate (Interchim FP-BA8240) to an effective cell number of 1 × 10^4 cells per well. Fractions or compounds including a vehicle control (0.3% DMSO final concentration) and a positive control (rifabutin, 10 μM final concentration) were added using an electronic multipipette (Sartorius). Subsequently, the well plates were sealed with a gas impermeable membrane (H769.1, Carl Roth), briefly centrifuged, and intracellular bacterial growth was monitored using an Agilent BioTek H1 plate reader and an Agilent BioTek BioStack plate stacker by recording luminescence over 72 h at 25 °C with readings taken every hour. Fluorescence was also recorded to monitor amoeba growth.
(§5) For both assays, growth curves were obtained by measuring the luminescence and fluorescence as a proxy for bacterial growth and host growth, respectively, for 72 h with time-points taken every hour. The “normalized residual growth” was computed by calculating the area under the curve (AUC, trapezoid method) and normalizing it to the vehicle control (0.3% DMSO, set at 1) and a baseline curve (set at 0). The baseline curve was calculated by taking the median of the first measurement of all wells in a plate and extrapolating it over the complete time course. The threshold for hit detection was arbitrarily fixed at a cutoff of normalized residual growth ≤0.5. Normalized values were averaged over technical and biological replicates (all experiments on isolated compounds have at least n = 3 and N = 3, whereas the primary extract screening and microfractions testing had values of n = 1 and N = 3). […]

[3] = tested on: Mycobacterium marinum (Mm) in broth; assay: Mm growth in broth (antibiotic assay, luminescence); format: cell-based; conditions: Mm in 7H9 broth, luminescence at 32 °C, 72 h, IC50 interpolated
Protocol: as §1, with “Extracts, fractions, and compounds were resuspended throughout in DMSO to best solubilize extracts with diverse constituents.” left out
For testing bacteria in broth, the preculture was diluted to a bacterial density of 3.75 × 10^5 bacteria per mL in 7H9 medium. Plating bacteria and compounds or fractions was performed analogously to the infection assay described above. Bacteria growth was monitored with the Agilent BioTek H1 plate reader by recording luminescence at 32 °C.
For both assays, growth curves were obtained by measuring the luminescence and fluorescence as a proxy for bacterial growth and host growth, respectively, for 72 h with time-points taken every hour. The “normalized residual growth” was computed by calculating the area under the curve (AUC, trapezoid method) and normalizing it to the vehicle control (0.3% DMSO, set at 1) and a baseline curve (set at 0). The baseline curve was calculated by taking the median of the first measurement of all wells in a plate and extrapolating it over the complete time course. The threshold for hit detection was arbitrarily fixed at a cutoff of normalized residual growth ≤0.5.
This procedure was also applied to screening extracts with slight modifications. The day before the experiment we preplated 10 μL of HL5-C using a dispenser (Thermo Multidrop), subsequently we preplated 2.2 μL of dissolved extracts from 96-well plates into quadrants 1, 2, and 3 of 384-well plates, whereas quadrant 4 was used for positive and vehicle controls. Preplating of extracts was performed using a liquid handler (Agilent Bravo). In total, 24 extract plates were distributed in triplicate into […] 384-well plates, amounting to 24 assay plates. The prepared plates were sealed and stored at 4 °C overnight. On the day of the experiment, nine 10 cm Petri dishes were infected (as described before) and grouped into three pools. The cell suspension was adjusted to 10^6 cells/mL, and 10 μL was plated into the 24 assay plates, resulting in 10^4 cells per well, as used for conventional infection experiments. Plates were sealed and placed in the plate stacker that supplied the plate reader. The same procedure was used to screen the same extracts on Mm in a broth. For both assays, the first time points and a time point after 72 h were recorded. Subsequently, we normalized the end point, first with the median of the full assay plate at the first time point and second with the end point of the vehicle controls in the respective assay plate.
For IC50 estimation, we used a rudimentary approach of interpolating the sample concentration between the two normalized residual growth values, which were closest to a value of 0.5.

[4] = tested on: Dictyostelium discoideum (Dd) in infection; assay: Dd-Mm infection assay: host amoeba growth (fluorescence); format: cell-based; conditions: infected Dd, fluorescence AUC over 72 h at 25 °C, 6-concentration curve, top 100 μM, 1:3 steps, IC50 interpolated
Protocol: as §1, §2, §3, §4, §5

[5] = tested on: Staphylococcus aureus (Sa) Newman strain; conditions: literature report; reference number not shown in text; cited from earlier work

| Compound | MIC [1] [µg/mL] | IC50 [2] [µM] | IC50 on Mm in broth [3] | IC50 ([4]; Dictyostelium discoideum) [µM] | MIC on Sa [1] | specificity window (IC50 on Dd vs IC50 on intracellular Mm) ([2]; ratio of IC50 against Dd growth to IC50 on intracellular Mm) [fold] | IC50 ([3]; read-out: IC50 on Mm in broth) [µM] | IC50 [4] [µM] | IC50 on Dd in infection [4] | MIC on Sa ([1]; listed as Anacardic acid) [μg·mL^–1] | active dose against Sa (already reported) [5] [μg mL^–1] |
| --- | --- | --- | --- | --- | --- | --- | --- | --- | --- | --- | --- |
| CCCCCCCCCCCc1cccc(O)c1C(=O)O [Compound 11, Anagigantic acid] | 8 (≈ 27.4 µM) | 2.47 | Not active | 2.47 |  |  |  |  |  |  |  |
| O=C(/C=C/c1c2ccccc2cc2ccccc12)c1cc(Cl)c(O)cc1O [Compound 27, (E)-3-(Anthracen-9-yl)-1-(5-chloro-2,4-dihydroxyphenyl)prop-2-en-1-one] | 2 (≈ 5.34 µM) | 0.59 | not active | 15.9 | 2 mg·L–1 | 25 |  |  |  |  |  |
| 3-Chloro-2,4-dihydroxychalcone [Compound 21] |  | 1.76 |  |  | 32–64 mg·L–1 |  | 47.6 | 0.59 |  |  |  |
| O=C(O)c1c(O)cccc1CCCCCCCCc1ccccc1 [Compound 10, Khookerianic acid C/Kneglobularic acid A] | 8 (≈ 24.5 µM) | 2.47 | Not active | 2.47 |  |  |  |  |  |  |  |
| CC(=O)c1c(O)cc(O)cc1CCCCc1ccc2c(c1)OCO2 [Compound 1, Knemolone A] |  | 22.2 | Not active | 22.2 | Not active |  |  |  |  |  |  |
| CC(=O)c1ccc(O)cc1O [Compound 13, 2,4-Dihydroxyacetophenone] |  | 66.7 | not active |  | not active |  |  |  | not active |  |  |
| CC(=O)c1cc(Br)c(O)cc1O [Compound 19, 5-Bromo-2,4-dihydroxyacetophenone] |  | 66.7 | not active | 22.2 | not active |  |  |  |  |  |  |
| O=C(O)c1c(O)cccc1CCCCCCCCc1ccc2c(c1)OCO2 [Compound 9, Kneglobularic acid B] | 8 (≈ 21.6 µM) | 7.41 | Not active | 22.2 |  |  |  |  |  |  |  |
| O=C(O)c1c(O)cccc1CCCCc1ccc2c(c1)OCO2 [Compound 3, Knemolic acid A] | 8 (≈ 25.5 µM) | 66.7 | Not active | 66.7 |  |  |  |  |  |  |  |
| CCCCCCCCCCCCCCCc1cccc(O)c1C(=O)O [anacardic acid] |  | 22.2 | not active |  | 16 mg·L–1 |  |  |  | not active | 16 | 25 |
